For 30 molecules, IC50 results are on record in patent US9067922B2, “Chemical compounds” (Pfizer Limited, priority 2013, dated 2015).

The assay deals with URAT-1 transporter (Homo sapiens (Human), UniProt Q96S37). Briefly: URAT-1 inhibitor activity: [14C]-uric acid uptake in CHO-URAT1(L)GFP#8 (CHO#8) cells, scintillation proximity. Type of assay: cell-based. Conditions: inhibition of [14C]-uric acid (30 nM) uptake into CHO#8 cells; compound 0 to 10 μM; 4 parameter logistic fit. The text has this: The nucleotide sequence for the long isoform of URAT1 (NM_144585) was C-terminally fused to that of enhanced green fluorescent protein (eGFP) (hereinafter referred to as URAT1(L)GFP). The combined sequence was codon-optimised and custom synthesized. The synthesized sequence was generated in pDONR221 Gateway entry vector (Invitrogen Life Technologies) prior to cloning in pLenti6.3/V5 Gateway destination vector (Invitrogen Life Technologies).
Lentiviral particles were generated according to ViraPower HiPerform expression system procedure (Invitrogen Life Technologies) and used to transduce CHO cells. […] The clonal pools were sorted using fluorescence-activated cell sorting (FACS) on the basis of GFP expression with the gating set at the top 50% of expression into single cells which were subsequently expanded to generate clonal lines. […] This cell line was used for all screening activities and is referred to as CHO-URAT1(L)GFP#8 or CHO#8.
The potency of the compounds of formula (I) as inhibitors of the URAT-1 transporter was determined as follows.
CHO#8 cells were cultured in cell line maintenance flasks in medium consisting of Dulbecco's modified Eagle medium (DMEM) with high glucose and sodium pyruvate (4.5 g of glucose per liter, Invitrogen Life Technologies), supplemented with heat-inactivated foetal bovine serum (FBC, 10% v/v), 1×NEAA (non-essential amino acids) and blasticidin (10 μg/ml). Cultures were grown in 175 cm^2 tissue culture flasks in a humidified incubator at approximately 37° C. in approximately 95% air/5% CO2. Near confluent CHO#8 cell cultures were harvested by trypsinisation, re-suspended in culture medium and the process was repeated once or twice weekly to provide sufficient cells for use.
Assay ready flasks were generated by the same method, except the cells were not cultured in blasticidin.
Assay ready frozen cells were generated by freezing 40,000,000 cells in 1 ml of FBS (without blasticidin) containing 10% DMSO per vial. One vial was sufficient for 5 assay plates. Each vial was thawed rapidly to 37° C., washed and re-suspended in pre-warmed culture medium for seeding onto assay plates.
CHO#8 cells were seeded onto Cytostar™ 96-well plates at a density of […]. The cells were cultured for 1 day at approximately 37° C. in a humidified incubator containing approximately 5% CO2 in air. After approximately 24 hours culture, cells were used for uptake experiments.
On the day of assay, culture medium was removed from the wells and the cells were washed once with 50 μL of chloride-containing buffer (136.7 mM NaCl, 5.36 mM KCl, 0.952 mM CaCl2, 0.441 mM KH2PO4, 0.812 mM MgSO4, 5.6 mM D-glucose, 0.383 mM Na2HPO4.2H2O, 10 mM HEPES, pH 7.4 with NaOH). The cells were pre-incubated with another 50 μL of chloride-containing buffer for one hour at approximately 37° C. in a humidified incubator containing approximately 5% CO2 in air.
Assay compound plates were prepared by diluting the compounds of formula (I) with chloride-free buffer (125 mM Na-gluconate, 4.8 mM K-gluconate, 1.3 mM Ca-gluconate, 1.2 mM KH2PO4, 1.2 mM MgSO4, 5.6 mM D-glucose, 25 mM HEPES, pH 7.4 with NaOH) in 100% DMSO to a final concentration of 1% DMSO. [^14C]-Uric Uric acid working stock was made by addition of radiolabeled compound to a final concentration of 120 nM in chloride-free buffer. In all wells, the final assay concentration of solvent (DMSO) was 0.25%; the final assay concentration of [^14C]-uric acid was 30 nM in chloride-free buffer and the final compound of formula (I) concentrations ranged from 0 to 10 μM.
After pre-incubation, cells were washed with 50 μL of chloride-free buffer and another 50 μL of chloride-free buffer was added.

Chain of URAT-1 transporter (Q96S37 other isoform, or with tags, fused parts or gaps): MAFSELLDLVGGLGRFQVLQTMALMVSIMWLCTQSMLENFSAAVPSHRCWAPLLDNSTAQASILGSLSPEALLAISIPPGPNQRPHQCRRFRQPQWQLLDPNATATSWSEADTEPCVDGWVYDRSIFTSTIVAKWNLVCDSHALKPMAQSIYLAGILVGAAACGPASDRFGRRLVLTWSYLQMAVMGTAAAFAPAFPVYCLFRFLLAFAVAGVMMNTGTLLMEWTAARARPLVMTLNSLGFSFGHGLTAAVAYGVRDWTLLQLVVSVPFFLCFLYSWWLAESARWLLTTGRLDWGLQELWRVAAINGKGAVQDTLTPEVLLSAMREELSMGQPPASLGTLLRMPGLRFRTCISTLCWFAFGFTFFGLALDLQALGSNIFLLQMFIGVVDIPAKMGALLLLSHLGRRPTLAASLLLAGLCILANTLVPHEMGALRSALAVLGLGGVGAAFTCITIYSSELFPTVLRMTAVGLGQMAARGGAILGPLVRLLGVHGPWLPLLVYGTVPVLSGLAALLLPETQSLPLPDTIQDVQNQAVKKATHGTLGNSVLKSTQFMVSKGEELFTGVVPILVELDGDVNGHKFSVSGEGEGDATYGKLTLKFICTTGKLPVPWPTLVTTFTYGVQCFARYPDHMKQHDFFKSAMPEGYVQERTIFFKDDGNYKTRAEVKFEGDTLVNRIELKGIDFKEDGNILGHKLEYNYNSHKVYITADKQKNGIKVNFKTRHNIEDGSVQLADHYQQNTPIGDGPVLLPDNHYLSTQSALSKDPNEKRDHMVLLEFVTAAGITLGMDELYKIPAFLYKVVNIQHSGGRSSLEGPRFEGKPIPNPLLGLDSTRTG

Turning to `N#Cc1cc(S(=O)(=O)Nc2ccc(F)cn2)ccc1Oc1ccccc1C(F)(F)F` [Example 51, 3-cyano-N-(5-fluoropyridin-2-yl)-4-[2-(trifluoromethyl)phenoxy]benzenesulfonamide], the IC50 amounted to 171 nM.

As to `N#Cc1cc(S(=O)(=O)Nc2ccc(F)cn2)ccc1Oc1cccc(F)c1` [Example 52, 3-cyano-4-(3-fluorophenoxy)-N-(5-fluoropyridin-2-yl)benzenesulfonamide], the midpoint of inhibition, the IC50, lay at 259 nM. This IC50 is about 1.5-fold higher than that of the molecule before.

In turn, `N#Cc1cc(S(=O)(=O)Nc2ccc(F)cn2)ccc1Oc1cc(F)ccc1F` [Example 53, 3-cyano-4-(2,5-difluorophenoxy)-N-(5-fluoropyridin-2-yl)benzenesulfonamide] yielded an IC50 of 191 nM.

Molecule `N#Cc1cc(S(=O)(=O)Nc2ccc(F)cn2)ccc1Oc1ccc(C(F)(F)F)cc1` [Example 54, 3-cyano-N-(5-fluoropyridin-2-yl)-4-[4-(trifluoromethyl)phenoxy]benzenesulfonamide] showed a half-inhibitory concentration (IC50) of more than 10000 nM.

For `N#Cc1cc(S(=O)(=O)Nc2ccc(F)cn2)ccc1Oc1ccc(Cl)c(F)c1` [Example 55, 4-(4-chloro-3-fluorophenoxy)-3-cyano-N-(5-fluoropyridin-2-yl)benzenesulfonamide], the IC50 was 129 nM.

Molecule `CCc1cc(F)ccc1Oc1ccc(S(=O)(=O)Nc2ccc(F)cn2)cc1C#N` [Example 56, 3-cyano-4-(2-ethyl-4-fluorophenoxy)-N-(5-fluoropyridin-2-yl)benzenesulfonamide] returned an IC50 of 182 nM.

Consider `CC(C)c1cccc(Oc2ccc(S(=O)(=O)Nc3ccc(F)cn3)cc2C#N)c1` [Example 57, 3-cyano-N-(5-fluoropyridin-2-yl)-4-[3-(propan-2-yl)phenoxy]benzenesulfonamide], for which the IC50 is more than 10000 nM.

`N#Cc1cc(S(=O)(=O)Nc2ccc(F)cn2)ccc1Oc1ccc(Cl)cc1I` [Example 58, 4-(4-chloro-2-iodophenoxy)-3-cyano-N-(5-fluoropyridin-2-yl)benzenesulfonamide] showed an IC50 of 287 nM.

On to `Cc1ccc(Oc2ccc(S(=O)(=O)Nc3ccc(F)cn3)cc2C#N)cc1C#N` [Example 59, 3-cyano-4-(3-cyano-4-methylphenoxy)-N-(5-fluoropyridin-2-yl)benzenesulfonamide], for which the IC50 is more than 10000 nM.

The molecule `N#Cc1cc(Oc2ccc(S(=O)(=O)Nc3ccc(F)cn3)cc2C#N)ccc1Cl` [Example 60, 4-(4-chloro-3-cyanophenoxy)-3-cyano-N-(5-fluoropyridin-2-yl)benzenesulfonamide] had an IC50 of 92 nM.

`Cc1cc(Oc2ccc(S(=O)(=O)Nc3ccc(F)cn3)cc2C#N)ccc1C#N` [Example 61, 3-cyano-4-(4-cyano-3-methylphenoxy)-N-(5-fluoropyridin-2-yl)benzenesulfonamide] yielded an IC50 of 39 nM.

`N#Cc1cc(Cl)cc(Oc2ccc(S(=O)(=O)Nc3ccc(F)cn3)cc2C#N)c1` [Example 62, 4-(3-chloro-5-cyanophenoxy)-3-cyano-N-(5-fluoropyridin-2-yl)benzenesulfonamide] came in with an IC50 of 27 nM. This IC50 and that of the molecule before are within 1.5-fold of each other.

In turn, `N#Cc1ccc(Cl)c(Oc2ccc(S(=O)(=O)Nc3ccc(F)cn3)cc2C#N)c1` [Example 63, 4-(2-chloro-5-cyanophenoxy)-3-cyano-N-(5-fluoropyridin-2-yl)benzenesulfonamide] gave an IC50 of 321 nM.

Molecule `N#Cc1cc(S(=O)(=O)Nc2ccc(F)cn2)ccc1Oc1cccc(C#N)c1Cl` [Example 64, 4-(2-chloro-3-cyanophenoxy)-3-cyano-N-(5-fluoropyridin-2-yl)benzenesulfonamide] registered an IC50 of more than 1130 nM.

As to `N#Cc1cc(S(=O)(=O)Nc2ccc(F)cn2)ccc1Oc1cc(Cl)ccc1C#N` [Example 65, 4-(5-chloro-2-cyanophenoxy)-3-cyano-N-(5-fluoropyridin-2-yl)benzenesulfonamide], the IC50 amounted to 182 nM.

Take `COc1ccc(Oc2ccc(S(=O)(=O)Nc3ccc(F)cn3)cc2C#N)cc1C#N` [Example 66, 3-cyano-4-(3-cyano-4-methoxyphenoxy)-N-(5-fluoropyridin-2-yl)benzenesulfonamide]: the half-inhibitory concentration (IC50) was 135 nM.

For `N#Cc1ccc(Oc2ccc(S(=O)(=O)Nc3ccc(F)cn3)cc2C#N)c(OC(F)F)c1` [Example 67, 3-cyano-4-[4-cyano-2-(difluoromethoxy)phenoxy]-N-(5-fluoropyridin-2-yl)benzenesulfonamide], half-maximal inhibition (IC50) required 3520 nM.

`N#Cc1cc(S(=O)(=O)Nc2ccc(F)cn2)ccc1Oc1cnc(C#N)c(Cl)c1` [Example 68, 4-[(5-chloro-6-cyanopyridin-3-yl)oxy]-3-cyano-N-(5-fluoropyridin-2-yl)benzenesulfonamide] had an IC50 of 155 nM.

The molecule `N#Cc1ccc(F)c(Oc2ccc(S(=O)(=O)Nc3ccc(F)cn3)cc2C#N)c1` [Example 69, 3-cyano-4-(5-cyano-2-fluorophenoxy)-N-(5-fluoropyridin-2-yl)benzenesulfonamide] displayed an IC50 of 1310 nM.

In turn, `COc1ncc(Oc2ccc(S(=O)(=O)Nc3ccc(F)cn3)cc2C#N)cc1Cl` [Example 70, 4-[(5-chloro-6-methoxypyridin-3-yl)oxy]-3-cyano-N-(5-fluoropyridin-2-yl)benzenesulfonamide] had an IC50 of 25 nM.

In turn, `COc1cc(Oc2ccc(S(=O)(=O)Nc3ccc(F)cn3)cc2C#N)ccc1Cl` [Example 71, 4-(4-chloro-3-methoxyphenoxy)-3-cyano-N-(5-fluoropyridin-2-yl)benzenesulfonamide] gave an IC50 of 27 nM.

For the molecule `N#Cc1cc(F)c(Oc2ccc(S(=O)(=O)Nc3ccc(F)cn3)cc2C#N)cc1F` [Example 72, 3-cyano-4-(4-cyano-2,5-difluorophenoxy)-N-(5-fluoropyridin-2-yl)benzenesulfonamide], inhibition was half-maximal at 77 nM (IC50).

Regarding `N#Cc1cc(S(=O)(=O)Nc2ccc(F)cn2)ccc1Oc1c(Cl)cccc1C#N` [Example 73, 4-(2-chloro-6-cyanophenoxy)-3-cyano-N-(5-fluoropyridin-2-yl)benzenesulfonamide], the IC50 is 418 nM.

`N#Cc1cc(S(=O)(=O)Nc2ccc(F)cn2)ccc1Oc1ccc(Cl)cc1OC(F)F` [Example 74, 4-[4-chloro-2-(difluoromethoxy)phenoxy]-3-cyano-N-(5-fluoropyridin-2-yl)benzenesulfonamide] gave an IC50 of more than 10000 nM.

For `N#Cc1cc(S(=O)(=O)Nc2ccc(F)cn2)ccc1Oc1cccc(C#N)c1F` [Example 75, 3-cyano-4-(3-cyano-2-fluorophenoxy)-N-(5-fluoropyridin-2-yl)benzenesulfonamide], the IC50 is 2210 nM.

With `COc1cc(Oc2ccc(S(=O)(=O)Nc3ccc(F)cn3)cc2C#N)ccc1C#N` [Example 76, 3-cyano-4-(4-cyano-3-methoxyphenoxy)-N-(5-fluoropyridin-2-yl)benzenesulfonamide], the concentration for half-maximal inhibition (IC50) is 57 nM.

Molecule `N#Cc1cc(S(=O)(=O)Nc2ccc(F)cn2)ccc1Oc1ccc(F)c(F)c1` [Example 77, 3-cyano-4-(3,4-difluorophenoxy)-N-(5-fluoropyridin-2-yl)benzenesulfonamide] registered an IC50 of 43 nM.

`N#Cc1cc(S(=O)(=O)Nc2ccc(F)cn2)ccc1Oc1ccc(F)c(Cl)c1` [Example 78, 4-(3-chloro-4-fluorophenoxy)-3-cyano-N-(5-fluoropyridin-2-yl)benzenesulfonamide]: the IC50 was determined as 19 nM.

Molecule `Cc1cc(Oc2ccc(S(=O)(=O)Nc3ccc(F)cn3)cc2C#N)cc(C)c1C#N` [Example 79, 3-cyano-4-(4-cyano-3,5-dimethylphenoxy)-N-(5-fluoropyridin-2-yl)benzenesulfonamide] registered an IC50 of 7 nM.

On to `N#Cc1cc(S(=O)(=O)Nc2ccccn2)ccc1Oc1ccc(Cl)cc1I` [Example 80, 4-(4-chloro-2-iodophenoxy)-3-cyano-N-(pyridin-2-yl)benzenesulfonamide], for which the half-inhibitory concentration (IC50) was determined as 728 nM.
